The values below come from patent publication US20210220370A1, “SELECTIVE HDAC8 INHIBITORS AND THEIR USES” (HOCHSCHULE DARMSTADT, priority 2015, published 2021).

Where two headings read alike, the source gives them in different places.

In assay [1] the test system is breast cancer cell line MCF-7. As to the kind of experiment: Growth inhibition of cancer cell line, resazurin assay. The assay is classed as cell-based, Human. To be noted: Table 2, resazurin assay.
In assay [2] the test system is T cell leukemia cell line JURKAT. The description is as above. As to conditions: for GI50: read-out: GI50 JURKAT.
Assay [3] deals with uterine leiomyosarcoma cell line SKUT-1. Described as above. In kind it is cell-based, Human. To be noted: Table 2, resazurin assay.
The target of assay [4] is HDAC2 (Homo sapiens, UniProt Q92769). As to the kind of experiment: HDAC2 colorimetric assay, substrate Boc-Lys(Ac)-AMC. In kind it is biochemical.
Chain of HDAC2 (Q92769 whole entry): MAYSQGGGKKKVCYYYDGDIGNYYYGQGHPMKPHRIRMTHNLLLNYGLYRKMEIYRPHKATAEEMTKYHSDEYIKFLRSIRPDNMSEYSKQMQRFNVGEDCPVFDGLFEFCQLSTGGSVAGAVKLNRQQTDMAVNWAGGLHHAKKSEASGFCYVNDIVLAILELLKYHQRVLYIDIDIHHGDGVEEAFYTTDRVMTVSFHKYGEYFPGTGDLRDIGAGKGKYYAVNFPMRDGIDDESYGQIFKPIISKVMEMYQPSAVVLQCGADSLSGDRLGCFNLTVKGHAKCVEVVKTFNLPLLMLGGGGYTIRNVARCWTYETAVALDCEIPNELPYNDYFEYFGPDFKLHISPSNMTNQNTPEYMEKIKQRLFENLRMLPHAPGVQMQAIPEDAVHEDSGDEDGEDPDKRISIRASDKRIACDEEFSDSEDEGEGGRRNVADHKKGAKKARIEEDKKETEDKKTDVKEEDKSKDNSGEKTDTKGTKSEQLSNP
The target in assay [5] is T1, HDAC8 (Homo sapiens, UniProt Q9BY41).
T1 sequence (Q9BY41 1-377): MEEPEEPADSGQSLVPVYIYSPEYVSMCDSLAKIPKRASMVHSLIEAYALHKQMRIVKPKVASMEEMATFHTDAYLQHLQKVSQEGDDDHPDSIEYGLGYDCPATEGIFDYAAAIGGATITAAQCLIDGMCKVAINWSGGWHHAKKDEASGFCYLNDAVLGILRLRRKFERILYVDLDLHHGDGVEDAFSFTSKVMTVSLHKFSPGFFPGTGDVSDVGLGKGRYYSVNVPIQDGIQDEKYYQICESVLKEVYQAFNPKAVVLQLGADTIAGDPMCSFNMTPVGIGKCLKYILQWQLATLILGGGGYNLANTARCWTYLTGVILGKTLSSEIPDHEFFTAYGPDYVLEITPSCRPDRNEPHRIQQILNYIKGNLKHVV
Put plainly: HDAC8 colorimetric assay, substrate Boc-Lys(TFA)-AMC.
Protocol: 1 nM of HDAC4 was incubated with increasing concentrations of the respective compound for 30 minutes at 30° C. The reaction was initiated by addition of 20 μM of the substrate Boc-Lys(trifluoracetyl)-AMC. After an incubation of 60 minutes the reaction was stopped by addition of 20 μM SAHA and the deacetylated substrate was converted into a fluorescent product by the addition of trypsin.

Assay [6] concerns the target T2, HDAC6 (Homo sapiens, UniProt Q9UBN7).
T2 sequence (Q9UBN7 1-1215): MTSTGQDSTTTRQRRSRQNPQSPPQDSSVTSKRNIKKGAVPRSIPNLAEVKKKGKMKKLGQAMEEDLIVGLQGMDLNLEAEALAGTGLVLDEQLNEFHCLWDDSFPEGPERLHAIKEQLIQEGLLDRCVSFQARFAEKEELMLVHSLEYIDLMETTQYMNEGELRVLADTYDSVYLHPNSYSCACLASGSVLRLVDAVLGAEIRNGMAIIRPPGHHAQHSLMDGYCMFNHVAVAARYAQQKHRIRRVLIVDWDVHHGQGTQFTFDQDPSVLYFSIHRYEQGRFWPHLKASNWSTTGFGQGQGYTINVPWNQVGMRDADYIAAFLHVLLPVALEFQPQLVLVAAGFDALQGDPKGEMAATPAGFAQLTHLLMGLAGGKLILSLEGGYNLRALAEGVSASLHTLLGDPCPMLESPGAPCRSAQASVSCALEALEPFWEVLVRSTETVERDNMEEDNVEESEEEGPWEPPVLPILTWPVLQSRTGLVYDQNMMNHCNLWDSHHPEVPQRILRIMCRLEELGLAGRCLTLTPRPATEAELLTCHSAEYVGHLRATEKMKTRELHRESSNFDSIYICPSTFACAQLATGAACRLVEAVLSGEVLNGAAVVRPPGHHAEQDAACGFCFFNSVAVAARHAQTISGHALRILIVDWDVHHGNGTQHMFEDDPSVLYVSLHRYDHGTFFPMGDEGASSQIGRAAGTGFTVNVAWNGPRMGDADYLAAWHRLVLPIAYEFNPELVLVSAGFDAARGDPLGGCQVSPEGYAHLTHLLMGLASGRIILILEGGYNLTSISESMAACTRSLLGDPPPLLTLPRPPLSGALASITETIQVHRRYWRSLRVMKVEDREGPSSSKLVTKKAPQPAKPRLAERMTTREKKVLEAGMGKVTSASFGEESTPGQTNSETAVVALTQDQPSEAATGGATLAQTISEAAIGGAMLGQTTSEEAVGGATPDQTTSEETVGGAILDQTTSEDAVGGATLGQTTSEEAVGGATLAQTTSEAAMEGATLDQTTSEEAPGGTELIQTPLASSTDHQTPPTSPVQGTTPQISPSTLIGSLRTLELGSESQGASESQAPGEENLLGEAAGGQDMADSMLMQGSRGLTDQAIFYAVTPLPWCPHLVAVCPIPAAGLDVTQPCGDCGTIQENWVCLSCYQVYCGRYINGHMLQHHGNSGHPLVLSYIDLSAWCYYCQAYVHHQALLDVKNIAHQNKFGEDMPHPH
As to the kind of experiment: HDAC6 colorimetric assay, substrate Boc-Lys(Ac)-AMC. In kind it is biochemical.

Assay [7] addresses HDAC3 (Homo sapiens, UniProt O15379). Put plainly: HDAC3 colorimetric assay, substrate Boc-Lys(Ac)-AMC. The assay is classed as biochemical. To be noted: Table 1.
Assay [8] addresses HDAC4 (Homo sapiens, UniProt P56524). In kind it is biochemical. As to conditions: Table 1.
Assay [9] concerns the target HDAC5 (Homo sapiens, UniProt Q9UQL6). Put plainly: HDAC5 colorimetric assay, substrate Boc-Lys(TFA)-AMC.
The target in assay [10] is T3, HDAC7 (Homo sapiens, UniProt Q8WUI4).
T3 sequence (Q8WUI4 1-952): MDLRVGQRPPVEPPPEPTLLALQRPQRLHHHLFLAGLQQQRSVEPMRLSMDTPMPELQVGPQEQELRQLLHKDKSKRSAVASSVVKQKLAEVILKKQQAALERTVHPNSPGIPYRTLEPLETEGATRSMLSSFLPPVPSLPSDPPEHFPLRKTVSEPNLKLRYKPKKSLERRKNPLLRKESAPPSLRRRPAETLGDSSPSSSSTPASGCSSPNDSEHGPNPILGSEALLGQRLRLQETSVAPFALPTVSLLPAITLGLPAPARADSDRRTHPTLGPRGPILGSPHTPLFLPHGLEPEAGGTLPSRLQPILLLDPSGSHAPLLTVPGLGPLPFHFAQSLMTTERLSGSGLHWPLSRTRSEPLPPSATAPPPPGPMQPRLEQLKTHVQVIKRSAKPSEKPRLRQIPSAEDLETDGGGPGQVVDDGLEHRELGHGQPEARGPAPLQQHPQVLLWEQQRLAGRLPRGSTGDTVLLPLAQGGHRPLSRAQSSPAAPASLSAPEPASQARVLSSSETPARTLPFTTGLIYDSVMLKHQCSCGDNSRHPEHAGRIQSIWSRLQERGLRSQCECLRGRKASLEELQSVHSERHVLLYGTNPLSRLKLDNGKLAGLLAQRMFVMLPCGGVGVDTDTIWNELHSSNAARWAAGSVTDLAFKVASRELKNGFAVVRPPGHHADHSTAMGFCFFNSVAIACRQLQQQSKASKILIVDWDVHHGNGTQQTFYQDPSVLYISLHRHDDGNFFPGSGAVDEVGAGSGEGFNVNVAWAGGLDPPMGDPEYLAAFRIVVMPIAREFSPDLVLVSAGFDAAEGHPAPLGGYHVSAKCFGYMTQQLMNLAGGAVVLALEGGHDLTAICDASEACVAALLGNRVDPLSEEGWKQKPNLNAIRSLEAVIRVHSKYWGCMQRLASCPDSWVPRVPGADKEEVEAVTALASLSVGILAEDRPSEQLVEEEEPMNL
Put plainly: HDAC7 colorimetric assay, substrate Boc-Lys(TFA)-AMC.

Assay [11] addresses HDAC1 (Homo sapiens, UniProt Q13547). As to the kind of experiment: HDAC1 colorimetric assay, substrate Boc-Lys(Ac)-AMC.
Protocol: 1 nM of HDAC1 was incubated with increasing concentrations of the respective compound for 30 minutes at 30° C. The reaction was initiated by addition of 50 μM of the substrate Boc-Lys(Ac)-AMC. After an incubation of 60 minutes the reaction was stopped by addition of 20 μM SAHA and the deacetylated substrate was converted into a fluorescent product by the addition of trypsin.
Setting [12] is: IC50 for HDAC1, FIG. 3, 50 μM Boc-Lys(Ac)-AMC.

Chain of HDAC5 (Q9UQL6 whole entry): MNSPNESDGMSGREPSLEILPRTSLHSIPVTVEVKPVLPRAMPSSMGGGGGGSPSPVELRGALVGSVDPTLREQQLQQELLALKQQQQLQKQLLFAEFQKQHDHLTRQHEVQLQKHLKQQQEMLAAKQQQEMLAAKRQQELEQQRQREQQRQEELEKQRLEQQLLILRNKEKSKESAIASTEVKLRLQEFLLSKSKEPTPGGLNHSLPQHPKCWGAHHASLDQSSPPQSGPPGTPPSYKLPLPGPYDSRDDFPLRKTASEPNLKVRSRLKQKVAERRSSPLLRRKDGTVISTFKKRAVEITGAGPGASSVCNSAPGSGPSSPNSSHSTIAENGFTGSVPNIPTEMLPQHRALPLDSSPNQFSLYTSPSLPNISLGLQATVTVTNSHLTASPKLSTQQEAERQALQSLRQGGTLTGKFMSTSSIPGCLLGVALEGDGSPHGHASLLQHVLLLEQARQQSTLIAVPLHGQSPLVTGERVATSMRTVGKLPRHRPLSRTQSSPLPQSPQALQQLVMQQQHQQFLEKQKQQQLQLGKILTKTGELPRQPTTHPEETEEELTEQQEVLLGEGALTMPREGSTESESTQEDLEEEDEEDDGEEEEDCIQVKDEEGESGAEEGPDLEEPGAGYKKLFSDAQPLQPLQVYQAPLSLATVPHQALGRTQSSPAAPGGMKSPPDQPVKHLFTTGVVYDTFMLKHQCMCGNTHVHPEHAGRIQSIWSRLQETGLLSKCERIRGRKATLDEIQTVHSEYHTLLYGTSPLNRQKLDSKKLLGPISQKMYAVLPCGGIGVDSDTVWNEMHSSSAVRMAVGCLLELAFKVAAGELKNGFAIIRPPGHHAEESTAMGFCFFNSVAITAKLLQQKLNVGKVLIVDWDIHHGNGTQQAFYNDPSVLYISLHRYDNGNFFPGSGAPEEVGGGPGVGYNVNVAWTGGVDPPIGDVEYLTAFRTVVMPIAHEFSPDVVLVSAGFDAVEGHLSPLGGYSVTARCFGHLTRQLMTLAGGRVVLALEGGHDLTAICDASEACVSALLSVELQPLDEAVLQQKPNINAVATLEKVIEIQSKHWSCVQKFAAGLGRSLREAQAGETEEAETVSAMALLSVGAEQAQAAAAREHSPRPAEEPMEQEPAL
Chain of HDAC1 (Q13547 whole entry): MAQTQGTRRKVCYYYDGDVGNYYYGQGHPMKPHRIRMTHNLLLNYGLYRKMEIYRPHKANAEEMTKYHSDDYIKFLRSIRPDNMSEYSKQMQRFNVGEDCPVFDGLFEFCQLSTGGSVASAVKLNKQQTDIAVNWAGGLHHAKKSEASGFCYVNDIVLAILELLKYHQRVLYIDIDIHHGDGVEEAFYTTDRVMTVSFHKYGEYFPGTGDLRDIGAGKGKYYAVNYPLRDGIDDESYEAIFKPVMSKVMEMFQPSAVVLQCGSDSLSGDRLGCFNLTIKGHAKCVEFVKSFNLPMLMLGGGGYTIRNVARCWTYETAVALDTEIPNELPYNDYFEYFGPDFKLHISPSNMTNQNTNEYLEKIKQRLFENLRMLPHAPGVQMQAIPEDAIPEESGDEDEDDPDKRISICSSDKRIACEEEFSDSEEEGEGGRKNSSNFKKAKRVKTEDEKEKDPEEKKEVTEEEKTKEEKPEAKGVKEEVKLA
Chain of HDAC4 (P56524 whole entry): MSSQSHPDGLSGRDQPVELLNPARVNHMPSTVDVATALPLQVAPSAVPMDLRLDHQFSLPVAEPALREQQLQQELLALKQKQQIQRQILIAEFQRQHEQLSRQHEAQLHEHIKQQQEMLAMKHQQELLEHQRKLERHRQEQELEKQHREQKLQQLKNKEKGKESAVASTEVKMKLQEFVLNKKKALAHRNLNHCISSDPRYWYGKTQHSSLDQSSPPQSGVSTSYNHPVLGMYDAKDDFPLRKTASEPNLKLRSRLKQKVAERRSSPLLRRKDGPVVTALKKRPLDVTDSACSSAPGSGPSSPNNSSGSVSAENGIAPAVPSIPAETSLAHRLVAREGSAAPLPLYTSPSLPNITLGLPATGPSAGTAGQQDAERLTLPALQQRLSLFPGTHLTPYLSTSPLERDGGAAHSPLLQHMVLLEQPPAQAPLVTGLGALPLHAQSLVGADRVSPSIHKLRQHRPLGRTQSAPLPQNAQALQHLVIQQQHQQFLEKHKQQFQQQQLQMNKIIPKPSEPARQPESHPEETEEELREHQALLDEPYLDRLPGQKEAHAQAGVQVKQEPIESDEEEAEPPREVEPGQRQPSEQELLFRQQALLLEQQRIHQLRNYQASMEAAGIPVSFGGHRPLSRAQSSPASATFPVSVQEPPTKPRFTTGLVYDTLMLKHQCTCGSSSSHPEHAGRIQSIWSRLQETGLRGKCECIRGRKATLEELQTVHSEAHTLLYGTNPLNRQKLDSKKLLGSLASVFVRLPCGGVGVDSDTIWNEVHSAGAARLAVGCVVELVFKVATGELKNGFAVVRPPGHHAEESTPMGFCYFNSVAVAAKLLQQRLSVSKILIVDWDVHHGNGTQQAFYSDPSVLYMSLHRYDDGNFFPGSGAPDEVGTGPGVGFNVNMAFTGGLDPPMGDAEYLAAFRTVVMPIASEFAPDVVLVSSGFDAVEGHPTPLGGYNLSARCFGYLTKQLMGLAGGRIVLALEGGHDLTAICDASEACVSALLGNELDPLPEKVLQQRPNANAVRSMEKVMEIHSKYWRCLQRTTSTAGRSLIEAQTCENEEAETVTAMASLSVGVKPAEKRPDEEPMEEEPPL
Chain of HDAC3 (O15379 whole entry): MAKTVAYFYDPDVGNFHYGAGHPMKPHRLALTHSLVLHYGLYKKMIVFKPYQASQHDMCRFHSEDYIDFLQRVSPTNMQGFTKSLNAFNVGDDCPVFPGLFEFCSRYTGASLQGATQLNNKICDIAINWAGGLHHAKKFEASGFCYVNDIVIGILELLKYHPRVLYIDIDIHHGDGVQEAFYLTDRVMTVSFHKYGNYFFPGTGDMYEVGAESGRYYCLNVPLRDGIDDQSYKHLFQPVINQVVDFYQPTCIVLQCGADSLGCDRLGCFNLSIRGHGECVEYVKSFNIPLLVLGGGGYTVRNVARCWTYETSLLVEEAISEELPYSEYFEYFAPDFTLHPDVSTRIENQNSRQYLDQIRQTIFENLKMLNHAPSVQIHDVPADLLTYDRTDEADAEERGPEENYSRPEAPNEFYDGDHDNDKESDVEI
Chain of HDAC3 (Q9Y618 395-489 partner limits assumed): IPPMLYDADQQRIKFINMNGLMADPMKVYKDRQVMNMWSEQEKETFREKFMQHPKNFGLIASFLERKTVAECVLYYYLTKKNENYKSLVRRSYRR

For `O=C(CCCCCCC(=O)Nc1ccccc1)NO` [Compound 1, Vorinostat, reference compound], the GI50 in [1] (Homo sapiens, MCF7) stood at 3.7 ± 0.4 µM; in assay [2] (Homo sapiens, Jurkat), 3.7 ± 0.4 µM; in assay [3] (Homo sapiens, SK-UT-1), 5.4 ± 0.4 µM.

As to `COc1ccc(Cn2ccc3ccc(C(=O)NO)cc32)cc1` [Compound 6, PCI-34051, reference compound], the GI50 in [1] (read-out: GI50 MCF7) came to 65 ± 18 µM; in [2] (Table 2, resazurin assay), 40 ± 4 µM; in [3] (read-out: GI50 SK-UT-1), 136 ± 62 µM.

For `N=C1Sc2ccc(F)cc2C2=NCCCN12` [Compound 13l, 10-Fluoro-3,4-Dihydrobenzo[e]Pyrimido[1,2-c][1,3]Thiazin-6(2H)-Imine], the IC50 in assay [4] (Table 1) amounted to 30 ± 2 µM; in [5] (IC50 HDAC8, Table 1) it was 0.006 ± 0.0006 µM; in assay [6] (Table 1, read-out: IC50 HDAC6), 0.65 ± 0.11 µM; in [7], 5.3 ± 0.4 µM; in assay [8], 2.2 ± 0.3 µM; in assay [9] it was 0.046 ± 0.003 µM. Moreover, the IC50 turned out to be 1.5 ± 0.4 µM in assay [10] (IC50 HDAC7, Table 1) and 2.1 ± 0.2 µM in [11] (IC50 HDAC1, Table 1). Further, the GI50 in assay [1] (Homo sapiens, MCF7) was found to be 79 ± 11 µM; in assay [2] (Homo sapiens, Jurkat), 16 ± 2 µM; in assay [3] (Homo sapiens, SK-UT-1), 24 ± 5 µM.

Turning to `Cc1ccc2c(c1)SC(=N)N1CCCN=C21` [Compound 13k, 9-Methyl-3,4-Dihydrobenzo[e]Pyrimido[1,2-c][1,3]Thiazin-6(2H)-Imine], the concentration for half-maximal inhibition (IC50) in assay [4] (Table 1) is greater than 50 µM; in assay [5] (IC50 HDAC8, Table 1), 0.0054 ± 0.0004 µM; in assay [6] (Table 1, read-out: IC50 HDAC6) it was 1.3 ± 0.3 µM; in assay [7], 26 ± 4 µM; in assay [8] it was 7.6 ± 0.8 µM; in assay [9], 0.24 ± 0.01 µM. The IC50 in [10] (IC50 HDAC7, Table 1) was 2.5 ± 0.1 µM; in [11] (IC50 HDAC1, Table 1), 5.8 ± 0.3 µM. The GI50 in [1] (Homo sapiens, MCF7) was determined as 44 ± 12 µM; in assay [2] (Homo sapiens, Jurkat), 36 ± 4 µM; in assay [3] (Homo sapiens, SK-UT-1), 45 ± 16 µM.

As to `N=C1Sc2cccc(Br)c2C2=NCCCN12` [Compound 13j, 11-Bromo-3,4-Dihydrobenzo[e]Pyrimido[1,2-c][1,3]Thiazin-6(2H)-Imine], the IC50 in assay [4] (Table 1) was found to be 16 ± 2 µM; in assay [5] (IC50 HDAC8, Table 1) it was 0.0063 ± 0.0004 µM; in assay [6] (Table 1, read-out: IC50 HDAC6) it was 1.4 ± 0.2 µM; in [7], 7 ± 0.5 µM; in [8], 2.3 ± 0.3 µM; in [9], 0.038 ± 0.001 µM. Further, the IC50 in [10] (IC50 HDAC7, Table 1) is 2 ± 0.7 µM; in assay [11] (IC50 HDAC1, Table 1), 2.6 ± 0.3 µM. Also, the GI50 in [1] (Homo sapiens, MCF7) was 11 ± 3 µM; in assay [2] (Homo sapiens, Jurkat), 17 ± 3 µM; in [3] (Homo sapiens, SK-UT-1), 16 ± 3 µM.

`N=C1Sc2ccc(Cl)cc2C2=NCCCN12` [Compound 13e, 10-Chloro-3,4-Dihydrobenzo[e]Pyrimido[1,2-c][1,3]Thiazin-6(2H)-Imine]: the IC50 in assay [4] (Table 1) is greater than 50 µM; in assay [5] (IC50 HDAC8, Table 1), 0.0059 ± 0.0003 µM; in assay [5] (IC50 for HDAC8, FIG. 3, 20 μM Boc-Lys(TFA)-AMC) it was 0.0055 µM; in [6] (Table 1, read-out: IC50 HDAC6), 1.2 ± 0.4 µM; in assay [7] it was 20 ± 1 µM; in assay [8] it was 5.7 ± 0.3 µM. Also, the IC50 came to 1 µM in assay [9]; 0.08 µM in assay [10] (IC50 for HDAC7, FIG. 3, 20 μM Boc-Lys(TFA)-AMC); 7.9 µM in assay [11] (setting [12]). The GI50 in assay [1] (Homo sapiens, MCF7) is greater than 1000 µM; in assay [2] (Homo sapiens, Jurkat) it was 56 ± 9 µM; in assay [3] (Homo sapiens, SK-UT-1) it was greater than 1000 µM.

Regarding `N=C1Sc2ccccc2C2=NCCCN12` [Compound 13a, 3,4-Dihydrobenzo[e]Pyrimido[1,2-c][1,3]Thiazin-6(2H)-Imine], the IC50 in [4] amounted to 32 ± 1.5 µM; in assay [6], 6.7 ± 0.8 µM; in assay [9] (read-out: IC50 HDAC5, Table 1), 0.11 ± 0.01 µM; in assay [10] (read-out: IC50 HDAC7, Table 1) it was 0.22 ± 0.02 µM; in assay [11] (IC50 HDAC1, Table 1) it was 3.6 ± 0.8 µM. Further, the GI50 is greater than 1000 µM in assay [1] (Homo sapiens, MCF7); 63 ± 8 µM in assay [2] (Homo sapiens, Jurkat); 736 ± 659 µM in assay [3] (Homo sapiens, SK-UT-1). Also, in assay [2], the “GI against JURKAT cells” value was determined as 63 µM. For the same molecule, in assay [2] (ratio of JURKAT value to HDAC8 IC50), the “times less active against JURKAT cells than on the isolated HDAC8 enzyme” value is given as “more than 5700”.

Turning to `N=C1Sc2ccccc2C2=NCCCN12` [Compound P2742, 6H-6-Imino-(2,3,4,5-tetrahydropyrimido)[1,2-c]-[1,3]benzothiazine, reference compound], the IC50 in assay [9] (read-out: IC50 for HDAC5, FIG. 3, 20 μM Boc-Lys(TFA)-AMC) is 0.11 µM; in assay [10], 0.24 µM; in assay [11] (setting [12]), 3 µM.
